Experimental data: paper PMC5923171, “Novel Zinc-Attenuating Compounds as Potent Broad-Spectrum Antifungal Agents with In Vitro and In Vivo Efficacy” (Antimicrobial Agents and Chemotherapy, 2018)
Values after ≈ are worked out from the molar mass of the structure shown. Marks after values point to notes of the source that are not given here.

Columns and labels:
[1] = Solubility in water at millimolar concentrations; format: physicochemical
[2] = Potentiometric titration with CaCl2; format: binding; details: DMSO-water (70:30, vol/vol)
Protocol: (§1) The Zn^2+-binding properties of ZAC307 and ZAC989 were further evaluated using a potentiometric assay, where pH is measured as a function of base (NaOH) added to the compound in either the absence or presence of metal. […] To determine the deprotonation constant, a solution of 1 mM ZAC307 or ZAC989 was titrated with 0.3 M NaOH at constant ionic strength (Fig. 2A and B). In a second run, the same titration was performed in the presence of 0.5 eq of Zn^2+ for ZAC307 and ZAC989. A shift in the pH curve in the presence of the metal (ZAC307, 0.5 eq of Zn^2+ [Fig. 2A]) compared to the absence of the metal (ZAC307 [Fig. 2A]) indicates binding of Zn^2+ to the compound. The measured pH data were analyzed with the Hyperquad program suite, taking into account all relevant equilibrium constants, including also the constants for metal hydroxylation. The analysis provides the pKa values and metal complex stability constants, as well as ligand-metal complex speciation calculation, indicating how many ZAC molecules are involved in coordinating the Zn^2+ ion at different pH values. […] ZAC989 bound copper with the formation constants log β1, log β2, and log β3 of 7.83, 13.37, and 20.62, respectively. The most dominant ZAC989-copper stoichiometry was a 3:1 stoichiometry (Fig. 2E).
(§2) Potentiometric measurements were carried out in DMSO-water (70:30, vol/vol) at 25°C as described previously ([22]). […]

Candida albicans SC5314 = assay: In vivo fungal kidney burden candidiasis model; set-up: species or system BALB/c mice; details: for Mean log CFU/kidney / Mean log CFU/kidney reduction: 60 mg/kg i.p. twice a day; for Mean log CFU/kidney reduction: vs untreated control; for adverse effects following dosing: 60 mg/kg i.p., mice
Protocol: A murine model of systemic candidiasis was established according to a previously described method ([44]). BALB/c mice were infected with a 0.1-ml inoculum (1 × 10^5 to 5 × 10^5 CFU) of Candida albicans SC5314 cells by the intravenous route on day 0. Compounds were tested at doses of 60 mg/kg. Administration of compound was initiated 24 h prior (day −1) to infection (day 0) by the intraperitoneal route, dosing twice a day for 4 days (day −1 to day 2). ZAC307 was also evaluated with administration of the compounds given after the infection at day 0 (no pretreatment) and following dosing twice a day for 3 days (days 0 to 2). Fluconazole was used as a comparator drug. Six mice were used for each group, and the untreated control group was exposed to the vehicle alone. ZAC989 and ZAC307 were formulated by taking 60 mg of compound and adding this to 2 ml and 4 ml of 0.1 N NaOH, respectively. After mixing and sonication of the resulting solutions, 4 ml of purified water was added. The pH was adjusted to 9.0 with 0.1 N HCl solution, followed by the addition of 90 mg of NaCl. The solutions were then diluted to 10 ml and filtered through a 0.22-μm polyvinylidene difluoride (PVDF) filter. Sample collection and processing were performed as follows. Twelve hours after the last dose, all treated and untreated animals were sacrificed by cervical dislocation and kidneys were collected in 3 ml of sterile normal saline. The samples were homogenized, serially diluted, and plated on Sabouraud dextrose agar (SDA). SDA plates were incubated for 24 to 48 h at 35°C, and CFU were enumerated and reported as log CFU/kidney. The endpoint was mean log CFU of fungi in kidneys of treated animals compared to that of untreated animals. The study was conducted in conformance with an application submitted to the Committee for the Purpose of Control and Supervision of Experiments on Animals (CPCSEA), New Delhi, India, after approval from the Institutional Animal Ethics Committee (IAEC).

[3] = Potentiometric titration, deprotonation constant; format: physicochemical; details: DMSO-water (70:30, vol/vol), 25°C, 0.1 M NaClO4
Protocol: as §1, §2

C. krusei ATCC 6258 = assay: Antifungal susceptibility testing (MIC); format: cell-based, Candida krusei; details: Pichia kudriavzevii, ATCC6258; at least 50% growth inhibition, RPMI, 24 h, 34°C
Protocol: Antifungal susceptibility testing was carried out as described previously ([38], [39]), with a few modifications. Briefly, for each yeast or mold growth inhibition assay, frozen stocks of yeast cells or spores were diluted to a final concentration of 0.5 × 10^5 to 2.5 × 10^5 CFU/ml in sterile water. ZAC989, ZAC307, and ZAC623 were dissolved in DMSO to 10 mM stocks from which half-log serial dilutions were prepared. Growth assays were subsequently performed by pipetting 3 μl of compound dissolved in DMSO (giving a final concentration of 1.5% DMSO), 100 μl of cell-spore suspension, and 97 μl of 2× RPMI medium (20.8 g/liter of RPMI 1640 medium, 69.06 g/liter of morpholinepropanesulfonic acid [MOPS], 36 g/liter of glucose) into a microtiter plate that was incubated for 24 h (yeasts) or 48 to 72 h (molds) at 34°C. Fungal growth was determined spectrophotometrically by optical density reading of each well at a wavelength of 492 nm on a Victor X5 (Perkin-Elmer) plate reader. […] Standard errors between repeated experiments were generally below 5%. The growth effect of exogenous addition of various divalent metals was evaluated by performing the antifungal susceptibility assay in the presence of 5 μM ZAC989 or ZAC307 and with increasing concentrations (0.003 to 50 μM) of ZnSO4, CuSO4, (NH4)2Fe(SO4)2, MgCl2, and CaCl2.

[4] = Potentiometric titration with MgCl2; format: binding; details: DMSO-water (70:30, vol/vol)

SMILES | solubility in water [1] | Ca^2+ binding [2] | Mean log CFU/kidney (Candida albicans SC5314; day −1 to day 2 (pretreatment)) [log CFU/kidney] | Mean log CFU/kidney reduction (Candida albicans SC5314; day −1 to day 2 (pretreatment)) [log CFU/kidney] | Mean log CFU/kidney (Candida albicans SC5314; days 0 to 2, no pretreatment) [log CFU/kidney] | Mean log CFU/kidney reduction (Candida albicans SC5314; days 0 to 2, no pretreatment) | adverse effects following dosing (Candida albicans SC5314) | pKa [3] | MIC (C. krusei ATCC 6258) [µg/mL] | Mg^2+ binding [4]
CN(C)c1cc(-n2nc(-c3ccccc3)cc2O)ncn1 [ZAC307, 2-[6-(dimethylamino)pyrimidin-4-yl]-5-phenyl-pyrazol-3-ol] | poor solubility in water | negligible | 4.73 ± 0.19 | 1.06 | 4.77 ± 0.19 | 1.03* log CFU/kidney | no adverse effects | 6.84 | 0.4 (≈ 1.42 µM) | negligible
Cc1cc(O)n(-c2cc(N3CC[C@H](Oc4cnccc4C#N)C3)ncn2)n1 [ZAC989, 3-[(3S)-1-[6-(5-hydroxy-3-methyl-pyrazol-1-yl)pyrimidin-4-yl]pyrrolidin-3-yl]oxy-pyridine-4-carbonitrile] | poor solubility in water | negligible | 4.09 ± 0.31 | 1.71 | – | – | lethargy lasting for 5 to 15 min after dosing | 7.7 | 0.8 (≈ 2.2 µM) | negligible
